Assay results: patent US9872875B2, “Component and method for treating viral disease” (Institut Pasteur of Shanghai, Chinese Academy of Sciences, priority 2012, dated 2018)
Read-outs that look alike come from different tables or passages of the source.

Legend:
EV71 [1] = experiment: Effects of other antagonists and agonists on EV71 (Table 9); assay type: cell-based, Enterovirus 71; design: key: “NO” indicates there is negative
P2X1 receptor = molecular target: T1, P2X1 receptor (Homo sapiens, UniProt P51575); settings: cited from earlier work
T1 sequence (P51575 1-399): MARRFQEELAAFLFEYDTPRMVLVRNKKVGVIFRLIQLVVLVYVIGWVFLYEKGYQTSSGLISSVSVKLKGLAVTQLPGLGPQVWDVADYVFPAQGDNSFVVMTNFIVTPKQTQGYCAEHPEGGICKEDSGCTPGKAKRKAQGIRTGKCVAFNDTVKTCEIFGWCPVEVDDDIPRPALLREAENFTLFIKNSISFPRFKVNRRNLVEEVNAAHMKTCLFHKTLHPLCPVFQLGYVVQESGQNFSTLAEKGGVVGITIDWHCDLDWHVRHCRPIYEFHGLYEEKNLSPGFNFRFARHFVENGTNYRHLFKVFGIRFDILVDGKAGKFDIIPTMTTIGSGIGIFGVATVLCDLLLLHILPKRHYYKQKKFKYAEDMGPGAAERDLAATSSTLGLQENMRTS

P2X3 receptor = molecular target: T2, P2X3 receptor (Homo sapiens, UniProt P56373); settings: cited from earlier work
T2 sequence (P56373 1-397): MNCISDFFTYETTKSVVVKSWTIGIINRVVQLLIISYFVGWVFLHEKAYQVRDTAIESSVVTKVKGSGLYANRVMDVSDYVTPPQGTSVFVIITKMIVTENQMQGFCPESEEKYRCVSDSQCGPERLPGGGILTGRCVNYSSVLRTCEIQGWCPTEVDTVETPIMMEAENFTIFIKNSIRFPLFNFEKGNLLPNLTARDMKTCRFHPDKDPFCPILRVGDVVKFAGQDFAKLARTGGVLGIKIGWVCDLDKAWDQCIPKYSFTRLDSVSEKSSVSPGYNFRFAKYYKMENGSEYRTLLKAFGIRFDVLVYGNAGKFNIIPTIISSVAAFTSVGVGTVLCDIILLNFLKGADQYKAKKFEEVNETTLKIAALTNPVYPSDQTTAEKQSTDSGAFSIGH

P2Y1 = P2Y1 (Homo sapiens, UniProt P47900); settings: Table 9, antagonists; cell names P2Y1; cited from earlier work
EV71 [2] = experiment: Inhibition of EV71 replication in RD cells at 0.1, 1, 10 and 100 μM (CPE, crystal violet); assay type: cell-based, Enterovirus 71
Protocol: Inhibitory effect of each P2X receptor antagonists and agonists on EV71 replication was measured at 0.1, 1, 10, and 100 μM. Specific procedures refer to “1” of Example 1. after infection, however, cells need to be incubated for 3˜4 days, stained with crystal violet, and observed under optical microscope to determine whether or not CPE (cytopathic effect) was present. In addition, the effect of compounds at each concentration on cytotoxicity to RD cells was determined. After culturing RD cells in various concentrations of compounds for 3˜4 days, stained with crystal violet, and observed under optical microscope to observe whether or not cell layer was damaged. Compounds capable of protecting cells from infection without damage of healthy cell layer can inhibit EV71 replication in RD cells.

P2X2 receptor = molecular target: T3, P2X2 receptor (Homo sapiens, UniProt Q9UBL9); settings: Table 8, antagonists; cited from earlier work
T3 sequence (Q9UBL9 1-471): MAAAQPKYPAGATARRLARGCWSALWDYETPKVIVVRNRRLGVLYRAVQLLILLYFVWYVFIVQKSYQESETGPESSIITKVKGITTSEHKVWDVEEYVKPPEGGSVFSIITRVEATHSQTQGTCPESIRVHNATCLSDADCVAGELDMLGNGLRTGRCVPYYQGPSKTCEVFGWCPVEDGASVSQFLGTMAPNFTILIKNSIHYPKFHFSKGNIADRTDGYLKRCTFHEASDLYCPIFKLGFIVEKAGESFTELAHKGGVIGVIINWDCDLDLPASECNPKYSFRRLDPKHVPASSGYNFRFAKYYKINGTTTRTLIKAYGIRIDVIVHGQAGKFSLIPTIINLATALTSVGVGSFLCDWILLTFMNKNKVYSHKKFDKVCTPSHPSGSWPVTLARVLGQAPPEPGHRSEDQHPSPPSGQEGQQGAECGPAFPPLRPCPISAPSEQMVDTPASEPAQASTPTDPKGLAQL

P2X5 receptor = P2X5 receptor (Homo sapiens, UniProt Q93086); settings: Table 8, antagonists; cited from earlier work
P2X7 receptor = molecular target: T4, P2X7 receptor (Homo sapiens, UniProt Q99572); settings: Table 8, antagonists; cited from earlier work
T4 sequence (Q99572 1-595): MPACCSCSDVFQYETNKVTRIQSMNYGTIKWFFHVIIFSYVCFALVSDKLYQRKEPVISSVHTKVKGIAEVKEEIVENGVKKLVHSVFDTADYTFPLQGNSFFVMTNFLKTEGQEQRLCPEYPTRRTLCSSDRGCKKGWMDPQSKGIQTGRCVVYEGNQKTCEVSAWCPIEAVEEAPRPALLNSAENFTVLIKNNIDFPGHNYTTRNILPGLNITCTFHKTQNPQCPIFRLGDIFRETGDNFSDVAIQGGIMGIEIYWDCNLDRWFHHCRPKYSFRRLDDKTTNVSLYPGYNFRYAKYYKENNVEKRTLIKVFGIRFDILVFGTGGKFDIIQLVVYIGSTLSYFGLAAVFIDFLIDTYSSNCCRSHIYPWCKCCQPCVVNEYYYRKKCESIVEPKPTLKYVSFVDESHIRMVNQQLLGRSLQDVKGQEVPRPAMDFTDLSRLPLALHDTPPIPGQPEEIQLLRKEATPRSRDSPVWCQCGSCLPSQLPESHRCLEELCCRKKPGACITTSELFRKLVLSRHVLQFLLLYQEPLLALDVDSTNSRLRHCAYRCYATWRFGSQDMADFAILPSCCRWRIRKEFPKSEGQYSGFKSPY

P2X2/3 = P2X2/3 (Homo sapiens, UniProt P56373+Q9UBL9); settings: Table 9, antagonists; cited from earlier work

Sequence of P2Y1 (P47900 whole entry, species assumed): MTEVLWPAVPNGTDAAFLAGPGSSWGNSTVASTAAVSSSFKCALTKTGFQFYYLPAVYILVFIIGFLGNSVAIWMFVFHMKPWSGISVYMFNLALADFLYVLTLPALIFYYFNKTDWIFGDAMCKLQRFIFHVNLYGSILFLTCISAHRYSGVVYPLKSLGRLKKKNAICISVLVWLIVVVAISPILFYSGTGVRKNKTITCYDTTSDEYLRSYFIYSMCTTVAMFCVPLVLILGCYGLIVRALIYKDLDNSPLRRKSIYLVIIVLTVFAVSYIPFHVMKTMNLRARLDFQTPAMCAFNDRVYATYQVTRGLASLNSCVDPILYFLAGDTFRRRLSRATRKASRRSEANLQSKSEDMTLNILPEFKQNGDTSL
Sequence of P2X5 receptor (Q93086 whole entry): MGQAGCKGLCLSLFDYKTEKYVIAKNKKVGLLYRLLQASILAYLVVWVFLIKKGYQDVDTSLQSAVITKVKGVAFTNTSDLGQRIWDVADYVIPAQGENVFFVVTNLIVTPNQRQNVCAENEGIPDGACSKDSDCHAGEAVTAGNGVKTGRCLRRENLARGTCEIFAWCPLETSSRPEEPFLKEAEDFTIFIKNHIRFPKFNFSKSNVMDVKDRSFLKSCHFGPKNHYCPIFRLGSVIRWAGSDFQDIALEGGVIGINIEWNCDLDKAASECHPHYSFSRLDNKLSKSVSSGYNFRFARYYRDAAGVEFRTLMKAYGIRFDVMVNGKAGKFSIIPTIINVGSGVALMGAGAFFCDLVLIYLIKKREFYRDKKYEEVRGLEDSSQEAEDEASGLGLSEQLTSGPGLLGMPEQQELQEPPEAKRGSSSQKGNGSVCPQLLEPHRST

Compound	EV71 Log10 reduction (EV71 [1])	P2X receptors 1 (P2X1 receptor; Table 9, antagonists)	P2X receptors 3 (P2X3 receptor; Table 9, antagonists)	P2Y (P2Y1)	inhibition of EV71 replication (statement in words) (EV71 [2])	Inhibition of EV71 replication (EV71 [2]; Table 8, antagonists)	P2X receptors 1 (P2X1 receptor; Table 8, antagonists)	P2X receptors 2 (P2X2 receptor)	P2X receptors 3 (P2X3 receptor; Table 8, antagonists)	P2X receptors 5 (P2X5 receptor)	P2X receptors 7 (P2X7 receptor)	Heteromultimer (P2X2/3)
CNc1ncnc2c1ncn2[C@H]1C[C@H](OP(=O)(O)O)[C@@H](COP(=O)(O)O)O1 [MRS 2179]	NO	✓ (✓ activating concentration >300 nM)	✓ (✓ activating concentration >300 nM)	✓ ✓ P2Y1 (✓ ✓ activating concentration 10 nM-300 nM)	–	–	–	–	–	–	–	–
trinitrophenol-ATP [TNP-ATP]	NO	✓ ✓ ✓ (✓ ✓ ✓ activating concentration <10 nM)	✓ ✓ ✓ (✓ ✓ ✓ activating concentration <10 nM)	–	can also inhibit EV71 replication	+ (+: inhibitory concentration >300 nM)	+++ (+++: inhibitory concentration <10 nM)	+ (+: inhibitory concentration >300 nM)	+++ (+++: inhibitory concentration <10 nM)	+ (+: inhibitory concentration >300 nM)	+ (+: inhibitory concentration >300 nM)	✓ ✓ ✓ (✓ ✓ ✓ activating concentration <10 nM)
